Counter-ions that a name gives are not always drawn.
target: T1, rat GPR120 (Rattus norvegicus, UniProt Q2AC31); test: Rat GPR120 IP1 assay (inositol phosphate turnover); assay type: cell-based; conditions: IP1 accumulation in HEK293 cells stably expressing rat GPR120
T1 construct: expressed in transfected cells; host or cells: HEK293
T1 sequence (Q2AC31 1-361): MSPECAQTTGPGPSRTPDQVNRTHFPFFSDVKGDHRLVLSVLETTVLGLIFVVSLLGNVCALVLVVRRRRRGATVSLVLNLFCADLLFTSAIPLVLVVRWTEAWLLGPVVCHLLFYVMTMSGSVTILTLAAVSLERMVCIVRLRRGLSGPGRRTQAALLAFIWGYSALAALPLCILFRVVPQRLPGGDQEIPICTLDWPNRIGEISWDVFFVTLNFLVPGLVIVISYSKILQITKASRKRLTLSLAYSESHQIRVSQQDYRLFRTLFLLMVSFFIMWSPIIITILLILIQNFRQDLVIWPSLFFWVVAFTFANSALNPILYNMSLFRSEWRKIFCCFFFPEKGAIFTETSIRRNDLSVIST
Excerpt: The binding of small molecule agonists to the G-protein-coupled receptor GPR120 activates phospholipase C, and leads to the generation of inositol 1,4,5-trisphosphate (InsP3 or IP3). IP3 is subsequently de-phosphorylated to IP1, which accumulates in cells and is stable in the presence of lithium chloride.
In the present method, agonist-induced activation of the human and rat GPR120 receptor was monitored by measuring the accumulation of IP1 in CHO-K1 cells that were stably expressing the short form of human GPR120 (Accession #NM_001195755) or HEK293 cells stably expressing rat GPR120 (Accession #NM_001047088). Following agonist addition, GPR120 activation and subsequent accumulation of IP1 was measured using a homogeneous Time Resolved Fluorescence-based ELISA commercially available from CisBio (IP-one ELISA Kit). The IP-One ELISA was a competitive immunoassay which uses IP1 labeled with […] and a terbium cryptate-labeled anti-IP1 monoclonal antibody. […] The signal loss was then back calculated to IP1 concentration using an IP1 standard curve. Determination of IP1 concentration was a direct measure of GPR120 activation and was used to determine compound potency (EC50).
Human GPR120 stable cell-lines were generated in CHO cells. The expression plasmids were transfected using lipofectamine (Life Technologies) following manufacturer's instructions. Stable cell-lines were generated following drug selection and single cell cloning. Rat GPR120 stable cell-lines were generated in HEK cells using the Jump-In™ cell engineering platform (Life Technologies) following manufacturer's instructions. Stable cell-lines were generated following drug selection and single cell cloning.
The assay was performed in 384-well format. CHO cells stably expressing human GPR120 were plated at 20,000 cells per well in growth medium (DMEM/F12, 10% fetal calf serum). HEK293 cells stably expressing rat GPR120 were plated at […] per well in growth medium (DMEM, 10% fetal calf serum). Cell plates were then incubated 16 hours at 37 degrees in a 5% CO2 incubator. Measurement of Inositol Phosphate Turnover (IP1) was performed using the CisBio IP-One kit (Part number 62IPAPEB). After the 16 hour incubation, the growth media was removed by centrifugation using the BlueWasher (AusWasher GUI Ver. v1.0.1.8) Protocol #21-“Light Dry” and 10 μl of stimulation buffer (prepared as described in the kit) was added to each well. In a separate plate, compounds were diluted in DMSO (200-fold over the final concentration in the assay well) and 50 nl was acoustically transferred to the appropriate well in the assay cell plate. The plates were then incubated for 60 minutes at 37 degrees in a 5% CO2 incubator. 10 μl of detection buffer (also prepared as described in the IP-One kit) was added to each well and the plates were incubated at room temperature for 60 minutes in the dark. The plates were then read in a Perkin ElmerEnVision or equivalent reader able to measure FRET. Fluorescent ratio of emission at 665 and 620 nm was then converted to the IP1 concentration by back calculating from an IP1 standard curve prepared at the time of the assay. The data was normalized to % activity using a reference compound, and the EC50 values were determined using a standard 4-parameter fit.

**Q.** With `Oc1cc(-c2ccc(O[C@H]3C[C@H](c4ccc(C(F)(F)F)cn4)C3)nc2)on1` [Example 23, 5-[6-({trans-3-[5-(trifluoromethyl)pyridin-2-yl]cyclobutyl}oxy)pyridin-3-yl]isoxazol-3-ol] as the compound, how does the EC50 read?
**A.** 100 nM

**Q.** How did the EC50 turn out when `Oc1cc(-c2cnc(O[C@H]3C[C@H](Oc4cccc(OC(F)(F)F)c4)C3)cn2)on1` [Example 61, sodium 5-[5-({trans-3-[3-(trifluoromethoxy)phenoxy]-cyclobutyl}oxy)pyrazin-2-yl]isoxazol-3-olate] was run?
**A.** 1.8 nM

**Q.** Which EC50 does the source give for `Oc1cc(-c2ccc(O[C@H]3C[C@](F)(c4ccnc(OC5CCC5)c4)C3)nc2)on1` [Example 87, sodium 5-[6-({cis-3-[2-(cyclobutyloxy)pyridin-4-yl]-3-fluorocyclobutyl}oxy)pyridin-3-yl]isoxazol-3-olate] here?
**A.** 4.7 nM

**Q.** For `Oc1cc(-c2ccc(O[C@H]3C[C@@](F)(c4ccnc(OC5CCC5)c4)C3)nc2)on1` [Example 88, 2-(cyclobutyloxy)-4-(trans-1-fluoro-3-{[5-(3-hydroxyisoxazol-5-yl)pyridinium-2-yl]oxy}cyclobutyl)pyridinium bis(trifluoroacetate)], which EC50 is on record?
**A.** 42.2 nM

**Q.** Which EC50 does the source give for `Oc1cc(-c2cnc(O[C@H]3C[C@](F)(c4ccnc(OC5CC5)c4)C3)cn2)on1` [Example 91, ammonium 5-[5-({cis-3-[2-(cyclopropyloxy)pyridin-4-yl]-3-fluoro-cyclobutyl}oxy)pyrazin-2-yl]isoxazol-3-olate] here?
**A.** 36 nM

**Q.** How did the EC50 turn out when `CCOc1cc([C@]2(F)C[C@@H](Oc3cnc(-c4cc(O)no4)cn3)C2)ccn1` [Example 94, 5-(5-{[cis-3-(2-ethoxypyridin-4-yl)-3-fluorocyclobutyl]oxy}pyrazin-2-yl)isoxazol-3-ol] was run?
**A.** 890 nM

**Q.** For `Oc1cc(-c2cnc(O[C@H]3C[C@@](F)(c4ccnc(OC5CCC5)c4)C3)cn2)on1` [Example 95, 5-[5-({trans-3-[2-(cyclobutyloxy)pyridin-4-yl]-3-fluorocyclobutyl}oxy)pyrazin-2-yl]isoxazol-3-ol], which EC50 is on record?
**A.** 18 nM

**Q.** Which EC50 does the source give for `Oc1cc(-c2cnc(O[C@H]3C[C@](F)(c4ccnc(OC5CCC5)c4)C3)cn2)on1` [Example 96, sodium 5-[5-({cis-3-[2-(cyclobutyloxy)pyridin-4-yl]-3-fluorocyclobutyl}oxy)pyrazin-2-yl]isoxazol-3-olate] here?
**A.** 33 nM

**Q.** Which EC50 does the source give for `Oc1cc(-c2cnc(O[C@H]3C[C@@](F)(c4nc(C(F)(F)F)cs4)C3)cn2)on1` [Example 102, ammonium 5-[5-({trans-3-fluoro-3-[4-(trifluoromethyl)-1,3-thiazol-2-yl]cyclobutyl}oxy)pyrazin-2-yl]isoxazol-3-olate] here?
**A.** 1160 nM

**Q.** `Oc1cc(-c2ccc(O[C@H]3C[C@H](c4ccc(Cl)cc4)C3)cn2)on1` [Example 110, 5-{[trans-3-(4-chlorophenyl)cyclobutyl]oxy}-2-(3-hydroxyisoxazol-5-yl)pyridinium trifluoroacetate] was tested. Which EC50 did it give?
**A.** 1.1 nM

**Q.** `Oc1cc(-c2ccc(O[C@H]3C[C@@H](c4ccc(Cl)cc4)C3)cn2)on1` [Example 111, 5-{[cis-3-(4-chlorophenyl)cyclobutyl]oxy}-2-(3-hydroxyisoxazol-5-yl)pyridinium trifluoroacetate] was tested. Which EC50 did it give?
**A.** 0.8 nM

**Q.** For `Oc1cc(-c2cnc(O[C@H]3C[C@H](c4ccc(Cl)cc4)C3)nc2)on1` [Example 115, 5-(2-{[trans-3-(4-chlorophenyl)cyclobutyl]oxy}pyrimidin-5-yl)isoxazol-3-ol], which EC50 is on record?
**A.** 5.8 nM

Source: patent US10864211B2, “Hydroxy isoxazole compounds useful as GPR120 agonists” (Merck Sharp & Dohme Corp., priority 2016, dated 2020)
